Test results from US20220133738A1, “GENOTYPE AND DOSE-DEPENDENT RESPONSE TO AN ASBTI IN PATIENTS WITH BILE SALT EXPORT PUMP DEFICIENCY” (MIRUM PHARMACEUTICALS, INC., priority 2019, published 2022).
Where “and” joins values, the source holds several entries; their conditions need not be identical. Identical values can stand only once.

Tests used:
Assay type in all cases: in vivo, human
[1] = tested on: children with progressive familial intrahepatic cholestasis (PFIC); experiment: INDIGO phase 2 open-label efficacy and safety study of maralixibat in children with PFIC
Description: The HRQoL used was the […] QUALITY OF LIFE INVENTORY (PedsQL).

[2] = tested on: adults with primary sclerosing cholangitis (PSC); experiment: CAMEO 14-week single-arm open-label phase 2a study of maralixibat in primary sclerosing cholangitis
Experimental: Participants were adults aged 18-80 years with a diagnosis of PSC. PSC diagnosis included a documented history of alkaline phosphatase (ALP) levels greater than 1.5 times above the upper limit of normal, biliary obstruction, and histological findings consistent with PSC diagnosis (if previously biopsied). The study enrolled 27 adults.
Efficacy was assessed by measuring at baseline and throughout the study sBA concentration, serum 7αC4 concentration (a marker of de novo bile acid synthesis), serum aoutotaxin concentration, LDL-C concentration, serum total cholesterol concentration, serum liver enzyme concentrations, and pruritus severity. Pruritus severity was determined by calculating Adult Itch Reported Outcome (ITCHRO) weekly sum scores and average daily scores (mean score over a 7-day period). Participants self-reported the ITCHRO daily on a scale 0-10 (0=no pruritus; 10=most severe pruritus).
Outcomes were assessed in the overall study population and in subgroups of participants (A) with any pruritus at baseline or (B) with an ITCHRO average daily score ≥4 out of 10 at baseline. Efficacy endpoints were based on change from baseline to week 14 or early termination (ET) and were analyzed using paired t-tests or Wilcoxon signed rank tests.

[3] = tested on: overweight and obese adults; experiment: Dose-ranging phase 1 clinical study (NCT02475317): fecal bile acid excretion with maralixibat and volixibat; conditions: for fBA excretion, mean change from baseline: baseline to day 6 and 7
[4] = tested on: children with progressive familial intrahepatic cholestasis (PFIC); experiment: INDIGO phase 2 open-label efficacy and safety study of maralixibat in children with PFIC; remark: listed apart in the source
[5] = individual participants A-F with ITCHRO daily score ≥4 at baseline, one line per participant
[6] = participants with ITCHRO daily score ≥4 at baseline

With CCCCC1(CCCC)CS(=O)(=O)c2ccc(N(C)C)cc2[C@@H](c2ccc(OCc3ccc(C[N+]45CCN(CC4)CC5)cc3)cc2)[C@H]1O [maralixibat] the “Multi-parameter Responders (n/N)” value ([1]; Mild PFIC 2 (N = 7)) was 1/7, the “Multi-parameter Responders (n/N)” value ([1]; Moderate PFIC 2 (N = 12)) was 6/12 and the “Multi-parameter Responders (%)” value ([1]; Non-truncating BSEP (N = 19)) was “(36.8%)”. The “Multi-parameter Responders (n/N)” value ([1]; Non-truncating BSEP (N = 19), response = >70% reduction or normalization in sBA and >1.0 reduction or <1.0 ITCHRO(OBS)) was 7/19, the “Multi-parameter Responders (n/N)” value ([1]; Truncating BSEP (N = 6)) was 0/6 and the “7αC4:sBA ratio” value ([1]; high-dose responder, prior to administration of 560 μg/kg/day) was 12 times baseline. For the same compound, the “Response (observed response)” value ([1]; individual PFIC 2 participants, one line per Subject ID of Table 3, (No reponse [sic] / Rapid complete response / Good response), max dose 280 or 560 μg/kg/day) was “Rapid (4×) and No (18×) and Good”, the “7αC4:sBA ratio, mean change from baseline at week 48” value ([1]; low-dose responders (range, 5-3982)) was 1388 times baseline ratio and the “7αC4 concentrations at 48 weeks relative to baseline” value ([1]; non-responders (range, 0.5-6)) was 1.8 × baseline. The “responders in long-term extension” value ([1]; patients having an ABCB11 gene with a truncating mutation) was “no patients”, the “patients with ≥1.0 pt. reduction in ITCHRO(OBS) score” value ([1]; patients with non-truncating BSEP mutations, FIG. 6) was 10/19 and the “sBA levels Normalized (±≤8.5 μmol/L), n” value ([1]; responders (n = 6) by week 48) was 4. The Response ([1]; subject 016054, moderate PFIC 2, wrapped cell r43-r46 reads 'No response until 560 reached') was “No”, the “PedsQL total score, change from baseline to week 48, mean” value ([1]; week 48) was “+8.2” and the tolerability ([2]; adults with PSC, 14 weeks) was “well tolerated”. For the same compound, the “participants with worsening of pruritus by >1 point” value ([2]; baseline to week 14) was “No participants”, the “Changes in serum total bilirubin, alanine aminotransferase, aspartate aminotransferase, and alkaline phosphatase concentrations” value ([2]; baseline to week 14/ET) was “not statistically significant” and the “ItchRO average daily score (0-10 scale), Change from baseline to week 14/ET” value [2, 5] was −4.6 and −1.7 and −3.7 (2×) and −9.1 and −4.7. The “ItchRO average daily score (0-10 scale), Week 14/ET” value [2, 5] was 1.3 and 5.1 and 3.1 and 2.3 and 0 (2×), the “Mean conjugated bilirubin levels, increase” value ([2]; overall population) was 0.19 mg/dL and the “total cholesterol, mean change” value ([2]; overall population) was -21.2 mg/dL. For the same compound, the “ITCHRO weekly sum scores, decrease from baseline” value ([2]; overall population, baseline to week 14/ET, 10 mg/day maintenance) was 51%, the “serum LCL-C concentration, change from baseline” value ([2]; overall population, SD 17.6) was -16.3 mg/dL and the “serum autotaxin concentration, change from baseline” value ([2]; overall population, SD 319) was -148 ng/mL. For the same compound, the “Mean levels of 7αC4, increase from baseline” value ([2]; overall, week 14/ET) was 130%, the “sBA levels, decrease from baseline” value ([2]; overall, week 14/ET) was 38% and the “7αC4, mean increase from baseline” value ([2]; overall, week 14/ET, SD 13.6) was 11.1 ng/mL. The “sBA levels, mean change from baseline” value ([2]; overall, week 14/ET, SD 31.4) was -14.8 µmol/L, the “Mean levels of 7αC4, increase from baseline” value [2, 6] was 107% and the “sBA levels, decrease from baseline” value [2, 6] was 45%. For the same compound, the “total cholesterol, mean change” value [2, 6] was -32.0 mg/dL, the “ITCHRO weekly sum scores, decrease from baseline” value ([2]; participants with ITCHRO daily score ≥4 out of 10 at baseline (n=6), week 14/ET) was 70% and the “ITCHRO weekly sum scores, decrease from baseline” value ([2]; participants with any pruritus at baseline (n=18), week 14/ET) was 53%. For the same compound, the “participants with ITCHRO average daily score improved by >1 point” value ([2]; week 14/ET) was 29.6%, the “participants with ITCHRO average daily score improved by >3 points” value ([2]; week 14/ET) was 22.2% and the “fBA excretion, mean change from baseline” value ([3]; 10 mg dose (QD), 7 days) was 515 µmol. The “fBA excretion, mean change from baseline” value ([3]; 20 mg dose (QD), 7 days) was 532 µmol, the “fBA excretion, mean change from baseline” value ([3]; 50 mg BID, 7 days) was 1251 µmol and the “fBA excretion, mean change from baseline” value ([3]; 100 mg QD, 7 days) was 1144 µmol. The “fBA excretion, dose dependence” value ([3]; across tested doses, 7 days) was “increased in a dose-dependent manner”, the treatment-emergent adverse events ([3]; all doses, 7 days) was “mild, and none were serious” and the “Mean serum 7αC4” value ([3]; baseline to day 7, greatest change at maralixibat 50 mg BID) was “increased”. The “Mean sBA levels” value ([3]; day 7 versus baseline) was “not elevated”, the “multi-parameter responders among mild PFIC 2 patients” value ([4]; 280 μg/kg QD) was 1 of 7 and the “moderate PFIC 2 patients responsive only at the higher dose (high-dose responder)” value ([4]; 280 μg/kg twice daily) was 1 of 12. For the same compound, the “responders among moderate PFIC 2 patients” value ([4]; 280 μg/kg/day by week 48) was 5 of 12, the “Multi-parameter Responders (%)” value ([4]; Mild PFIC 2 (N = 7)) was “(14.3%)” and the “Multi-parameter Responders (%)” value ([4]; Moderate PFIC 2 (N = 12)) was “(50%)”. For the same compound, the “Multi-parameter Responders (%)” value ([4]; Truncating BSEP (N = 6)) was “(0%)”, the multi-parameter response ([4]; all PFIC 1 patients and all patients harboring a truncating ABCB11 mutation) was “not multi-parameter responders” and the “increase in C4 levels relative to baseline” value ([4]; all low-dose responders (280 μg/kg/day), within 13 weeks of first administration) was “at least 2.5 fold”. The “serum ALT, AST, and bilirubin concentrations over time” value ([4]; all low-dose responders, within 2-6 months of first administration) was “normalized or only mildly elevated”, the “height Z-score” value ([4]; high dose responder, following treatment response on sBA) was “increase in height Z-score” and the “7αC4:sBA ratio” value ([4]; high-dose responder, upon administration of 560 μg/kg/day) was 1770 times baseline. For the same compound, the “cholestasis markers after dose increase” value ([4]; low-dose responder losing response in long-term extension, raised to 280 μg/kg BID at 640-730 days) was “sBA concentration decreased, severity of pruritus decreased, serum 7αC4 concentration increased, and 7αC4:sBA ratio increased”, the “7αC4 concentrations at 48 weeks relative to baseline” value ([4]; low-dose responders (range, 3-43)) was 14 × baseline and the “growth (height Z-score change from baseline)” value ([4]; low-dose responders, FIG. 4) was “improved growth relative to baseline”. For the same compound, the “7αC4:sBA ratio, mean change from baseline at week 48” value ([4]; non-responders (range, 0.43-12)) was 1.9 times baseline ratio, the “duration of maintained response” value ([4]; responders in the INDIGO study) was “for over a year and for up to or beyond 5 years” and the “Response: reduction in BAs” value ([4]; subject 080051-L, mild PFIC 2) was over 70%. The “response at the higher dose in prior non-responders” value ([4]; three non-truncating PFIC 2 patients without response at 280 μg/kg/day given 560 μg/kg/day) was “one (mentioned above) responded at the higher dose”.
